The text below walks through data of US20110306597A1, “Nicotinamide Derivatives” (priority 2008, published 2011).

For this assay, the target named is human recombinant H-PGDS (Homo sapiens, UniProt O60760). Put plainly: Fluorescence Intensity h-PGDS TBA Enzyme Assay. The class given is biochemical. Conditions: 1:175,000 human recombinant H-PGDS, highest inhibitor concentration typically 1 μM. The procedure, abridged: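 Recombinant human H-PGDS preincubated 10 min at room temperature with inhibitor in 100 mM Tris pH 8.0, 100 μM MgCl2, 2.5 mM glutathione, 0.5% DMSO; 5.0 μM PGH2 added, stopped after 42 s with FeCl2/citric acid. Remaining PGH2 measured as MDA–TBA fluorescence (ex 530/em 565 nm); IC50 by 4-parameter fit, 11 concentrations.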
Chain of human recombinant H-PGDS (O60760 whole entry): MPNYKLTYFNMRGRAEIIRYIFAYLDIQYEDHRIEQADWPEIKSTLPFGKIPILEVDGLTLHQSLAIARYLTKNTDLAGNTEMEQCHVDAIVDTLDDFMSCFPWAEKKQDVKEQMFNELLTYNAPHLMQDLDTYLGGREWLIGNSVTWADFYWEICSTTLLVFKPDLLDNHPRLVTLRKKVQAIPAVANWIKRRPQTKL
The term IC50 denotes the concentration at which inhibition is half-maximal. As for `N#CC(NC(=O)c1ccc(-c2cccc(F)c2)nc1)C(=O)NCCN1CCOCC1` (centres unmarked) [Example 212, N-{1-Cyano-2-[(2-morpholin-4-ylethyl)amino]-2-oxoethyl}-6-(3-fluorophenyl)nicotinamide], the half-inhibitory concentration (IC50) stood at 297 nM.

Turning to `Cc1cc(C)cc(-c2nnc(CCNC(=O)c3ccc(-c4cccc(F)c4)nc3)o2)c1` [Example 213, N-{2-[5-(3,5-Dimethylphenyl)-1,3,4-oxadiazol-2-yl]ethyl}-6-(3-fluorophenyl)nicotinamide], the IC50 was found to be 28.3 nM.

With `O=C(NCCCCNC(=O)c1ccc(-c2cccc(F)c2)nc1)OCc1ccccc1` [Example 214, Benzyl [4-({[6-(3-fluorophenyl)pyridin-3-yl]carbonyl}amino)butyl] carbamate], the IC50 amounted to 20.7 nM.

`O=C(NCCN1CCCCC1CO)c1ccc(-c2cccc(F)c2)nc1` (centres unmarked) [Example 215, 6-(3-Fluorophenyl)-N-{2-[2-(hydroxymethyl)piperidin-1-yl]ethyl}nicotinamide]: the IC50 worked out at 101 nM.

For the molecule `CC(C)OCCCN1CC(CNC(=O)c2ccc(-c3cccc(F)c3)nc2)OCC1=O` (centres unmarked) [Example 216, 6-(3-Fluorophenyl)-N-{[4-(3-isopropoxypropyl)-5-oxomorpholin-2-yl]methyl}nicotinamide], the IC50 was determined as 128 nM.

As to `CCOC(=O)c1nnc(CNC(=O)c2ccc(-c3cccc(F)c3)nc2)o1` [Example 217, Ethyl 5-[({[6-(3-fluorophenyl)pyridin-3-yl]carbonyl}amino)methyl]-1,3,4-oxadiazole-2-carboxylate], the IC50 came to 39.9 nM.

Take `CNS(=O)(=O)c1ccc(CNC(=O)c2ccc(-c3cccc(C)c3)nc2)cc1` [Example 218, N-{4-[(Methylamino)sulfonyl]benzyl}-6-(3-methylphenyl)nicotinamide]: the 50% inhibitory concentration (IC50) was determined as 27.6 nM.

Regarding `COC(=O)[C@H](C)NC(=O)c1ccc(-c2cccc(C)c2)nc1` [Example 219, Methyl N-{[6-(3-methylphenyl)pyridin-3-yl]carbonyl}alaninate], the IC50 is 89.4 nM.

`CCOC(=O)C1(NC(=O)c2ccc(-c3cccc(C)c3)nc2)CCOCC1` [Example 220, Ethyl 4-({[6-(3-methylphenyl)pyridin-3-yl]carbonyl}amino)tetrahydro-2H-pyran-4-carboxylate]: the IC50 was 93.4 nM.

Regarding `CCOC(=O)CC(NC(=O)c1ccc(-c2cccc(C)c2)nc1)c1ccc(Cl)cc1` (centres unmarked) [Example 221, Ethyl 3-(4-chlorophenyl)-3-({[6-(3-methylphenyl)pyridin-3-yl]carbonyl}amino)propanoate], the IC50 turned out to be 55.9 nM.

For `Cc1cccc(-c2ccc(C(=O)NCc3nc(CS(C)(=O)=O)no3)cn2)c1` [Example 222, 6-(3-Methylphenyl)-N-({3-[(methylsulfonyl)methyl]-1,2,4-oxadiazol-5-yl}methyl)nicotinamide], the IC50 came out at 351 nM.

On to `COC(=O)CCNC(=O)c1ccc(-c2cccc(C)c2)nc1` [Example 223, Methyl N-{[6-(3-methylphenyl)pyridin-3-yl]carbonyl}-beta-alaninate], for which the IC50 amounted to 44.1 nM.

On to `Cc1cccc(-c2ccc(C(=O)NCCN3CCCCC3=O)cn2)c1` [Example 224, 6-(3-Methylphenyl)-N-[2-(2-oxopiperidin-1-yl)ethyl]nicotinamide], for which the half-inhibitory concentration (IC50) was 56.4 nM.

For the molecule `Cc1cccc(-c2ccc(C(=O)NCCN3CCCCC3)cn2)c1` [Example 225, 6-(3-Methylphenyl)-N-(2-piperidin-1-ylethyl)nicotinamide], the IC50 came to 265 nM.

`Cc1cccc(-c2ccc(C(=O)NCc3ccccc3C)cn2)c1` [Example 226, N-(2-Methylbenzyl)-6-(3-methylphenyl)nicotinamide]: the IC50 was 12.4 nM.

Take `Cc1ccc(CN2CCC(NC(=O)c3ccc(-c4cccc(C)c4)nc3)C2=O)cc1` (centres unmarked) [Example 227, N-[1-(4-Methylbenzyl)-2-oxopyrrolidin-3-yl]-6-(3-methylphenyl)nicotinamide]: the IC50 came out at 62.2 nM.

`Cc1cccc(-c2ccc(C(=O)Nc3ccncc3)cn2)c1` [Example 228, 6-(3-Methylphenyl)-N-pyridin-4-ylnicotinamide]: the concentration for half-maximal inhibition (IC50) is 6.51 nM.

Consider `COC(=O)CNC(=O)[C@H](C)NC(=O)c1ccc(-c2cccc(C)c2)nc1` [Example 229, Methyl N-{[6-(3-methylphenyl)pyridin-3-yl]carbonyl}-L-alanylglycinate], for which the IC50 is 125 nM.

Regarding `COC(=O)CC(NC(=O)c1ccc(-c2cccc(C)c2)nc1)c1cccnc1` (centres unmarked) [Example 230, Methyl 3-({[6-(3-methylphenyl)pyridin-3-yl]carbonyl}amino)-3-pyridin-3-ylpropanoate], the IC50 turned out to be 47.2 nM.

Consider `Cc1cccc(-c2ccc(C(=O)NCCCNc3ccccn3)cn2)c1` [Example 231, 6-(3-Methylphenyl)-N-[3-(pyridin-2-ylamino)propyl]nicotinamide], for which the IC50 stood at 7.86 nM.

For the molecule `COC(C)(C)CNC(=O)c1ccc(-c2cccc(C)c2)nc1` [Example 232, N-(2-Methoxy-2-methylpropyl)-6-(3-methylphenyl)nicotinamide], the IC50 was 137 nM.

Regarding `Cc1cccc(-c2ccc(C(=O)NCCc3nc(C)no3)cn2)c1` [Example 233, N-[2-(3-Methyl-1,2,4-oxadiazol-5-yl)ethyl]-6-(3-methylphenyl)nicotinamide], the concentration for half-maximal inhibition (IC50) amounted to 85.5 nM.

On to `Cc1cccc(-c2ccc(C(=O)NCC(C)O)cn2)c1` (centres unmarked) [Example 234, N-(2-Hydroxypropyl)-6-(3-methylphenyl)nicotinamide], for which the IC50 amounted to 66.2 nM.

Take `CCC1CCN(CCNC(=O)c2ccc(-c3cccc(C)c3)nc2)CC1` [Example 235, N-[2-(4-Ethylpiperidin-1-yl)ethyl]-6-(3-methylphenyl)nicotinamide]: the IC50 worked out at 38.8 nM.

For the molecule `Cc1cccc(-c2ccc(C(=O)NCC(=O)OCc3ccccc3)cn2)c1` [Example 236, Benzyl N-{[6-(3-methylphenyl)pyridin-3-yl]carbonyl}glycinate], the IC50 was determined as 109 nM.

With `Cc1cccc(-c2ccc(C(=O)NCCN3CCCC3)cn2)c1` [Example 237, 6-(3-Methylphenyl)-N-(2-pyrrolidin-1-ylethyl)nicotinamide], the 50% inhibitory concentration (IC50) was found to be 504 nM.

`Cc1cccc(-c2ccc(C(=O)NCC3CCCCO3)cn2)c1` (centres unmarked) [Example 239, 6-(3-Methylphenyl)-N-(tetrahydro-2H-pyran-2-ylmethyl)nicotinamide]: the IC50 worked out at 67.6 nM.

As for `Cc1cccc(-c2ccc(C(=O)NCCc3ccncc3)cn2)c1` [Example 240, 6-(3-Methylphenyl)-N-(2-pyridin-4-ylethyl)nicotinamide], the 50% inhibitory concentration (IC50) is 10.7 nM.

In the case of `COC(=O)CNC(=O)c1ccc(-c2cccc(C)c2)nc1` [Example 241, Methyl N-{[6-(3-methylphenyl)pyridin-3-yl]carbonyl}glycinate], the IC50 came out at 150 nM.

As for `Cc1cccc(-c2ccc(C(=O)NCC(C)(C)CN(C)C)cn2)c1` [Example 242, N-[3-(Dimethylamino)-2,2-dimethylpropyl]-6-(3-methylphenyl)nicotinamide], the 50% inhibitory concentration (IC50) turned out to be 300 nM.

For the molecule `Cc1cccc(-c2ccc(C(=O)NC(=O)[C@@H](N)C(C)C)cn2)c1` [Example 243, 6-(3-Methylphenyl)-N-L-valylnicotinamide], the IC50 came to 124 nM.

As to `Cc1cccc(-c2ccc(C(=O)NCC(=O)N(C)C)cn2)c1` [Example 244, N-[2-(Dimethylamino)-2-oxoethyl]-6-(3-methylphenyl)nicotinamide], the IC50 amounted to 230 nM.

With `Cc1cccc(-c2ccc(C(=O)NCc3cccc(S(C)(=O)=O)c3)cn2)c1` [Example 245, 6-(3-Methylphenyl)-N-[3-(methylsulfonyl)benzyl] nicotinamide], the half-inhibitory concentration (IC50) turned out to be 11.5 nM.

For the molecule `Cc1cccc(-c2ccc(C(=O)NCc3ccco3)cn2)c1` [Example 246, N-(2-Furylmethyl)-6-(3-methylphenyl)nicotinamide], the IC50 is 29.2 nM.

`Cc1cccc(-c2ccc(C(=O)NCc3ccc(S(C)(=O)=O)cc3)cn2)c1` [Example 247, 6-(3-Methylphenyl)-N-[4-(methylsulfonyl)benzyl] nicotinamide]: the IC50 was 18.1 nM.

For `Cc1cccc(-c2ccc(C(=O)NC(=O)CC(N)C3CC3)cn2)c1` (centres unmarked) [Example 248, N-(3-Amino-3-cyclopropylpropanoyl)-6-(3-methylphenyl)nicotinamide], the IC50 was determined as 73.3 nM.

As to `Cc1cccc(-c2ccc(C(=O)NCCN3CCN(Cc4ccccc4)CC3)cn2)c1` [Example 249, N-[2-(4-Benzylpiperazin-1-yl)ethyl]-6-(3-methylphenyl)nicotinamide], the IC50 is 29.8 nM.

For `Cc1cccc(-c2ccc(C(=O)NC3CCOC3=O)cn2)c1` (centres unmarked) [Example 250, 6-(3-Methylphenyl)-N-(2-oxotetrahydrofuran-3-yl)nicotinamide], the IC50 was 74.5 nM.

For the molecule `Cc1ccc(CNC(=O)c2ccc(-c3cccc(C)c3)nc2)cc1` [Example 251, N-(4-Methylbenzyl)-6-(3-methylphenyl)nicotinamide], the IC50 is 105 nM.

Turning to `Cc1cccc(-c2ccc(C(=O)NC3CCOCC3)cn2)c1` [Example 252, 6-(3-Methylphenyl)-N-(tetrahydro-2H-pyran-4-yl)nicotinamide], the IC50 was 12.9 nM.

`Cc1cccc(-c2ccc(C(=O)NCCC3CCN(C)CC3)cn2)c1` [Example 253, 6-(3-Methylphenyl)-N-[2-(1-methylpiperidin-4-yl)ethyl]nicotinamide]: the IC50 worked out at 100 nM.

Consider `Cc1cccc(-c2ccc(C(=O)NC(C)C)cn2)c1` [Example 254, N-Isopropyl-6-(3-methylphenyl)nicotinamide], for which the IC50 came to 28.2 nM.

In the case of `CCOC(=O)CC(NC(=O)c1ccc(-c2cccc(C)c2)nc1)c1ccc(OC)cc1` (centres unmarked) [Example 255, Ethyl 3-(4-methoxyphenyl)-3-({[6-(3-methylphenyl)pyridin-3-yl]carbonyl}amino)propanoate], the IC50 was 38.7 nM.

Take `O=C(Nc1ccccc1)c1ccc(-c2ccc(F)cc2)nc1` [Example 256, 6-(4-Fluorophenyl)-N-phenylnicotinamide]: the IC50 was determined as 145 nM.
